Data taken from US9676784B2, “Fused imidazolyl derivatives, their preparation and use as medicaments” (LABORATORIOS DEL DR. ESTEVE S.A., priority 2013, dated 2017).
Where a name gives a salt, the structure may show the parent alone.

Each molecule was assayed against σ1-receptor (Cavia porcellus, UniProt Q60492) (assay: Binding assay for the σ1-receptor, [3H]-(+)-pentazocine, guinea pig brain membranes).
Chain of σ1-receptor (Q60492 whole entry): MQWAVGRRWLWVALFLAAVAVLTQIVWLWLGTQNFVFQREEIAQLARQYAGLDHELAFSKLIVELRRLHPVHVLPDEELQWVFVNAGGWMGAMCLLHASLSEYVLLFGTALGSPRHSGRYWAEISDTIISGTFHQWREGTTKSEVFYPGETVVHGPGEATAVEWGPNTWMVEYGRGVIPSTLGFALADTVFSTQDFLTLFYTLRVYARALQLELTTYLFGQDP
Description: Guinea pig brains were homogenized in 10 vols. (w/v) of Tris-HCl 50 mM 0.32 M sucrose, pH 7.4, with a Kinematica Polytron PT 3000 at 15000 r.p.m. for 30 s. The homogenate was centrifuged at 1000 g for 10 min at 4° C. and the supernatants collected and centrifuged again at 48000 g for 15 min at 4° C. The pellet was resuspended in 10 volumes of Tris-HCl buffer (50 mM, pH 7.4), incubated at 37° C. for 30 min, and centrifuged at 48000 g for 20 min at 4° C. Following this, the pellet was re-suspended in fresh Tris-HCl buffer (50 mM, pH 7.4) and stored on ice until use.
The radioligand used was [^3H]-(+)-pentazocine at 5.0 nM and the final volume was 200 μl. The incubation was initiated with the addition of 100 μl of membrane at a final tissue concentration of approximately 5 mg tissue net weight/mL and the incubation time was 150 m. at 37° C. After incubation, the membranes were collected onto pretreated glass fiber filterplate (MultiScreen-FC, Millipore), with polyethylenimine 0.1%. […] Nonspecific binding was determined with 1 μM haloperidol.

| SMILES | Ki [nM] |
| --- | --- |
| CCNC(=O)Nc1ncc2n1CCCN(CC1CCCCC1)C2 [Example 1, 1-(8-(Cyclohexylmethyl)-6,7,8,9-tetrahydro-5H-imidazo[1,5-a][1,4]diazepin-3-yl)-3-ethylurea] | 179 |
| CCNC(=O)Nc1ncc2n1CCN(CC1CCCCC1)C2 [Example 2, 1-(7-(Cyclohexylmethyl)-5,6,7,8-tetrahydroimidazo[1,5-a]pyrazin-3-yl)-3-ethylurea] | 106 |
| CCCNC(=O)Nc1ncc2n1CCN(CC1CCCCC1)C2 [Example 3, 1-(7-(Cyclohexylmethyl)-5,6,7,8-tetrahydroimidazo[1,5-a]pyrazin-3-yl)-3-propylurea] | 71 |
| c1ccc(Nc2ncc3n2CCN(CC2CCCCC2)C3)cc1 [Example 5, 7-(Cyclohexylmethyl)-N-phenyl-5,6,7,8-tetrahydroimidazo[1,5-a]pyrazin-3-amine] | 8.2 |
| Fc1cc(F)cc(Nc2ncc3n2CCN(CC2CCCCC2)C3)c1 [Example 6, 7-(cyclohexylmethyl)-N-(3,5-difluorophenyl)-5,6,7,8-tetrahydroimidazo[1,5-a]pyrazin-3-amine] | 12 |
| COc1cccc(Nc2ncc3n2CCN(CC2CCCCC2)C3)c1 [Example 7, 7-(cyclohexylmethyl)-N-(3-methoxyphenyl)-5,6,7,8-tetrahydroimidazo[1,5-a]pyrazin-3-amine] | 13 |
| Fc1ccc(Nc2ncc3n2CCN(CC2CCCCC2)C3)cc1 [Example 8, 7-(cyclohexylmethyl)-N-(4-fluorophenyl)-5,6,7,8-tetrahydroimidazo[1,5-a]pyrazin-3-amine] | 8 |
| Fc1c(Cl)cccc1Nc1ncc2n1CCN(Cc1ccccc1)C2 [Example 9, 7-benzyl-N-(3-chloro-2-fluorophenyl)-5,6,7,8-tetrahydroimidazo[1,5-a]pyrazin-3-amine] | 232 |
| c1ccc(Nc2ncc3n2CCN(CC2CCOCC2)C3)cc1 [Example 12, N-phenyl-7-((tetrahydro-2H-pyran-4-yl)methyl)-5,6,7,8-tetrahydroimidazo[1,5-a]pyrazin-3-amine] | 258 |
| COc1cccc(Nc2ncc3n2CCCN(CC2CCOCC2)C3)c1 [Example 15, N-(3-methoxyphenyl)-8-((tetrahydro-2H-pyran-4-yl)methyl)-6,7,8,9-tetrahydro-5H-imidazo[1,5-a][1,4]diazepin-3-amine] | 266 |
| Fc1ccc(Nc2ncc3n2CCCN(CC2CCOCC2)C3)cc1 [Example 16, N-(4-fluorophenyl)-8-((tetrahydro-2H-pyran-4-yl)methyl)-6,7,8,9-tetrahydro-5H-imidazo[1,5-a][1,4]diazepin-3-amine] | 175 |
| Fc1c(Cl)cccc1Nc1ncc2n1CCCN(CC1CCOCC1)C2 [Example 17, N-(3-chloro-2-fluorophenyl)-8-((tetrahydro-2H-pyran-4-yl)methyl)-6,7,8,9-tetrahydro-5H-imidazo[1,5-a][1,4]diazepin-3-amine] | 14 |
| Fc1cc(F)cc(Nc2ncc3n2CCCN(CC2CCOCC2)C3)c1 [Example 18, N-(3,5-difluorophenyl)-8-((tetrahydro-2H-pyran-4-yl)methyl)-6,7,8,9-tetrahydro-5H-imidazo[1,5-a][1,4]diazepin-3-amine] | 26 |
| Oc1cccc(Nc2ncc3n2CCN(Cc2ccccc2)C3)c1 [Example 19, 3-(7-benzyl-5,6,7,8-tetrahydroimidazo[1,5-a]pyrazin-3-ylamino)phenol] | 63 |
| Fc1ccc(CN2CCn3c(cnc3Nc3ccc(F)cn3)C2)cc1 [Example 20, 7-(4-fluorobenzyl)-N-(5-fluoropyridin-2-yl)-5,6,7,8-tetrahydroimidazo[1,5-a]pyrazin-3-amine] | 67 |
| Fc1ccc(Nc2ncc3n2CCN(Cc2ccccc2)C3)cc1 [Example 21, 7-benzyl-N-(4-fluorophenyl)-5,6,7,8-tetrahydroimidazo[1,5-a]pyrazin-3-amine] | 44 |
| CCC(=O)N(c1cccc(O)c1)c1ncc2n1CCN(Cc1ccccc1)C2 [Example 24, N-(7-benzyl-5,6,7,8-tetrahydroimidazo[1,5-a]pyrazin-3-yl)-N-(3-hydroxyphenyl)propionamide] | 124 |
| CCC(=O)N(c1cccc(O)c1)c1ncc2n1CCN(CCc1ccccc1)C2 [Example 25, N-(3-hydroxyphenyl)-N-(7-phenethyl-5,6,7,8-tetrahydroimidazo[1,5-a]pyrazin-3-yl)propionamide] | 358 |
| c1ccc(CNc2ncc3n2CCN(CC2CCCCC2)C3)cc1 [Example 27, N-Benzyl-7-(cyclohexylmethyl)-5,6,7,8-tetrahydroimidazo[1,5-a]pyrazin-3-amine] | 38 |
| c1ccc(Cc2ncc3n2CCN(CC2CCCCC2)C3)cc1 [Example 28, 3-Benzyl-7-(cyclohexylmethyl)-5,6,7,8-tetrahydroimidazo[1,5-a]pyrazine trifluoroacetate] | 39 |
| Fc1ccc(Cc2ncc3n2CCN(CC2CCCCC2)C3)cc1 [Example 30, 7-(cyclohexylmethyl)-3-(4-fluorobenzyl)-5,6,7,8-tetrahydroimidazo[1,5-a]pyrazine hydrochloride] | 22 |
| c1ccc(CCN2CCn3c(cnc3Nc3ccccc3)C2)cc1 [Example 31, 7-Phenethyl-N-phenyl-5,6,7,8-tetrahydroimidazo[1,5-a]pyrazin-3-amine] | 101 |
| Oc1cccc(Nc2ncc3n2CCN(CCc2ccccc2)C3)c1 [Example 34, 3-(7-phenethyl-5,6,7,8-tetrahydroimidazo[1,5-a]pyrazin-3-ylamino)phenol] | 168 |
| Fc1ccc(Nc2ncc3n2CCN(Cc2ccc(F)cc2F)C3)cc1 [Example 35, 7-(2,4-difluorobenzyl)-N-(4-fluorophenyl)-5,6,7,8-tetrahydroimidazo[1,5-a]pyrazin-3-amine] | 37 |
| Fc1ccc(Nc2ncc3n2CCN(CC2CCC(F)(F)CC2)C3)cc1 [Example 36, 7-((4,4-difluorocyclohexyl)methyl)-N-(4-fluorophenyl)-5,6,7,8-tetrahydroimidazo[1,5-a]pyrazin-3-amine] | 21 |
| Fc1ccc(Nc2ncc3n2CCN(Cc2ccc(F)cn2)C3)cc1 [Example 37, N-(4-fluorophenyl)-7-((5-fluoropyridin-2-yl)methyl)-5,6,7,8-tetrahydroimidazo[1,5-a]pyrazin-3-amine] | 293 |
| Fc1ccc(Nc2ncc3n2CCN(Cc2ccc(F)nc2)C3)cc1 [Example 38, N-(4-fluorophenyl)-7-((6-fluoropyridin-3-yl)methyl)-5,6,7,8-tetrahydroimidazo[1,5-a]pyrazin-3-amine] | 311 |
| COc1ccc(CN2CCn3c(cnc3Nc3ccc(F)cc3)C2)cn1 [Example 39, N-(4-fluorophenyl)-7-((6-methoxypyridin-3-yl)methyl)-5,6,7,8-tetrahydroimidazo[1,5-a]pyrazin-3-amine] | 373 |
| Fc1ccc(Nc2ncc3n2CCN(C2CCCCC2)C3)cc1 [Example 40, 7-cyclohexyl-N-(4-fluorophenyl)-5,6,7,8-tetrahydroimidazo[1,5-a]pyrazin-3-amine] | 68 |
